Assay results: article PMC8296573, “Synthesis and Biological Evaluation of Fingolimod Derivatives as Antibacterial Agents” (ACS Omega, 2021)
Read-outs that look alike come from different tables or passages of the source.

Tests used:
S. aureus ATCC 25923 [1] = test: Antibacterial activity, pre-exposure (planktonic cells and biofilm formation); type: cell-based, Staphylococcus aureus; conditions: for Average inhibition %, biofilms biomass / Average inhibition %, biofilms viability / Average inhibition %, planktonic cells turbidity / Average inhibition %, planktonic cells viability: ± SD
Procedure: (§1) The antimicrobial activity was assessed in a similar way for the initial screening and the dose–response evaluation against different bacterial strains. With the exception of the post-exposure experiment, the compounds were added to the wells along with the bacteria to test the ability of compounds to prevent bacterial growth and biofilm formation (pre-exposure). The compounds were diluted in DMSO and plated directly in 96-well plates before adding the bacterial culture, and plates were incubated for 18 h under aerobic conditions at 37 °C with shaking (220 rpm). The antibacterial activity of the compounds was assessed on planktonic cells and biofilms separately using two different measurements for each: optical density (turbidity) and resazurin reduction (viability) on planktonic cells and resazurin followed by a crystal violet staining assay (total biomass) on biofilms, as described in the following sections.
(§2) The resazurin staining was performed according to the protocol previously optimized with a few modifications.[46] Briefly, the planktonic solution was first transferred into a new 96-well plate and the OD of the planktonic solution was measured using a Varioskan LUX Multimode microplate reader (Thermo Scientific, Vantaa, Finland). Then, 10 μL of a 400 μM resazurin (R7017, Sigma-Aldrich, St. Louis, MO) diluted in phosphate-buffered saline (PBS) (Thermo Fisher Scientific, MA) was added to the wells (for a final resazurin concentration of 20 μM). The plate was incubated in the dark with shaking (220 rpm) for about 3–10 min at room temperature with S. aureus and A. baumannii (until the bacteria controls turned pink) or for 20 min at 37 °C with P. aeruginosa. Fluorescence was measured at λex = 560 nm and λem = 590 nm using the top optics of the Varioskan LUX Multimode microplate reader. The planktonic plate was then discarded. The original challenge plate containing the biofilms was washed once with PBS, and 200 μL of a 20 μM resazurin solution was added to the wells. The plate was incubated in the dark at 37 °C with shaking (220 rpm) for 30 min with S. aureus, 60 min with A. baumannii, and 90 min with P. aeruginosa. Fluorescence was measured as described for the planktonic solution. The biofilms were next treated with crystal violet staining.
(§3) After removing the resazurin solution from the plate, biofilms were fixed with ethanol 100% for 15 min at room temperature. Ethanol was then removed, and the biofilms were left to air-dry completely at RT. Crystal violet, diluted to 1:100 in deionized water from the 2.3% commercial solution (HT90132, Sigma-Aldrich, St. Louis, MO), was added to the wells and, after a 5 min incubation with the dye, the biofilms were washed twice with deionized water and left to air-dry for about 10 min. The dye was solubilized in ethanol 100% for 1 h, and absorbance was measured at 595 nm using a Multiskan Sky microplate spectrophotometer (Thermo Scientific, Vantaa, Finland).

A. baumannii NCTC 13423 = test: Antibacterial activity, pre-exposure; type: cell-based, Acinetobacter baumannii; conditions: for Average inhibition %, biofilms biomass / Average inhibition %, biofilms viability / Average inhibition %, planktonic cells turbidity / Average inhibition %, planktonic cells viability: A. baumannii NCTC 13423, pre-exposure, ± SD
Procedure: as §1, §2, §3

P. aeruginosa ATCC 9027 = test: Antibacterial activity, pre-exposure; type: cell-based, Pseudomonas aeruginosa; conditions: for Average inhibition %, biofilms biomass / Average inhibition %, biofilms viability / Average inhibition %, planktonic cells turbidity / Average inhibition %, planktonic cells viability: P. aeruginosa ATCC 9027, pre-exposure, ± SD
Procedure: as §1, §2, §3

S. aureus ATCC 25923 [2] = test: Antibacterial activity, post-exposure on preformed 18-h-old biofilms; type: cell-based, Staphylococcus aureus; conditions: ± SD
Procedure: For the post-exposure experiment, bacteria were grown with no compounds in the same conditions for 18 h, after which the media was changed, and compounds were added on the preformed biofilms. The plates were then incubated in the same conditions for an additional 24 h before proceeding to the staining assays.
as §2, §3

## 2-Amino-2-(4-decylbenzyl)propane-1,3-diol [Compound 45]
S. aureus ATCC 25923 [1]; lowest concentration with no visible growth (>90% inhibition of turbidity and viability of planktonic cells), 18 h
  MIC S. aureus ATCC 25923: 5 to 10 µM
S. aureus ATCC 25923 [1]; lowest concentration with no visible growth (>90% inhibition of turbidity and viability of planktonic cells), 18 h, read-out: MIC S. aureus ATCC 25923
  MIC: 10 µM
S. aureus ATCC 25923 [1]; pre-exposure, 5 µM
  Average inhibition %, biofilms biomass: 45.3 ± 46.5%
  Average inhibition %, biofilms viability: 45.4 ± 46.1%
  Average inhibition %, planktonic cells turbidity: 45.7 ± 46.9%
  Average inhibition %, planktonic cells viability: 41.5 ± 50.3%
S. aureus ATCC 25923 [1]; pre-exposure, 10 µM
  Average inhibition %, biofilms biomass: 92.5 ± 4.8%
  Average inhibition %, biofilms viability: 98.9 ± 0.5%
  Average inhibition %, planktonic cells turbidity: 99 ± 0.7%
  Average inhibition %, planktonic cells viability: 99.8 ± 0.1%
S. aureus ATCC 25923 [1]; pre-exposure, 15 µM
  Average inhibition %, biofilms biomass: 91.8 ± 4.7%
  Average inhibition %, biofilms viability: 99.7 ± 0.1%
  Average inhibition %, planktonic cells turbidity: 98.9 ± 0.7%
  Average inhibition %, planktonic cells viability: 99.7 ± 0.1%
S. aureus ATCC 25923 [1]; pre-exposure, 25 µM
  Average inhibition %, biofilms biomass: 91.8 ± 5.6%
  Average inhibition %, biofilms viability: 99.7 ± 0%
  Average inhibition %, planktonic cells turbidity: 98.6 ± 0.6%
  Average inhibition %, planktonic cells viability: 99.8 ± 0.2%
S. aureus ATCC 25923 [1]; pre-exposure, lowest value among replicates, read-out: MIC S. aureus ATCC 25923, for some replicates
  MIC: 5 µM
S. aureus ATCC 25923 [1]; supplementary molecular formula strings sheet
  MIC (S. aureus): 5 to 10 µM
A. baumannii NCTC 13423; 10 µM
  Average inhibition %, biofilms biomass: 0 ± 0%
  Average inhibition %, biofilms viability: 2.1 ± 3.6%
  Average inhibition %, planktonic cells turbidity: 0 ± 0%
  Average inhibition %, planktonic cells viability: 4.8 ± 2.9%
A. baumannii NCTC 13423; 15 µM
  Average inhibition %, biofilms biomass: 1 ± 1.8%
  Average inhibition %, biofilms viability: 0.5 ± 0.8%
  Average inhibition %, planktonic cells turbidity: 0 ± 0%
  Average inhibition %, planktonic cells viability: 2.8 ± 3.8%
A. baumannii NCTC 13423; 25 µM
  Average inhibition %, biofilms biomass: 0 ± 0%
  Average inhibition %, biofilms viability: 2.7 ± 4%
  Average inhibition %, planktonic cells turbidity: 0 ± 0%
  Average inhibition %, planktonic cells viability: 0 ± 0%
A. baumannii NCTC 13423; 50 µM
  Average inhibition %, biofilms biomass: 0.7 ± 1.3%
  Average inhibition %, biofilms viability: 6.5 ± 7.4%
  Average inhibition %, planktonic cells turbidity: 0 ± 0%
  Average inhibition %, planktonic cells viability: 0 ± 0%
A. baumannii NCTC 13423; pre-exposure, Inactive = no activity up to 50 μM, > = some inhibition but no MIC reached
  MIC A. baumannii NCTC 13423: Inactive
P. aeruginosa ATCC 9027; 50 µM
  Average inhibition %, biofilms biomass: 5 ± 3.4%
  Average inhibition %, biofilms viability: 8.1 ± 10.9%
  Average inhibition %, planktonic cells turbidity: 31.3 ± 5.3%
  Average inhibition %, planktonic cells viability: 24.4 ± 2.7%
P. aeruginosa ATCC 9027; 100 µM
  Average inhibition %, biofilms biomass: 2.5 ± 4.4%
  Average inhibition %, biofilms viability: 4 ± 6.6%
  Average inhibition %, planktonic cells turbidity: 41.8 ± 6%
  Average inhibition %, planktonic cells viability: 30 ± 7.6%
P. aeruginosa ATCC 9027; 150 µM
  Average inhibition %, biofilms biomass: 1.6 ± 2.8%
  Average inhibition %, biofilms viability: 1.9 ± 2.9%
  Average inhibition %, planktonic cells turbidity: 39.3 ± 3.3%
  Average inhibition %, planktonic cells viability: 36.5 ± 11.5%
P. aeruginosa ATCC 9027; 200 µM
  Average inhibition %, biofilms biomass: 0 ± 0%
  Average inhibition %, biofilms viability: 0 ± 0%
  Average inhibition %, planktonic cells turbidity: 40.7 ± 6.2%
  Average inhibition %, planktonic cells viability: 22.9 ± 11.2%
P. aeruginosa ATCC 9027; pre-exposure, Inactive = no activity up to 200 μM, > = some inhibition but no MIC reached
  MIC P. aeruginosa ATCC 9027: Inactive
S. aureus ATCC 25923 [2]; 25 µM
  Average inhibition %, biofilms biomass: 36.9 ± 3%
  Average inhibition %, biofilms viability: 15.5 ± 10.9%
  Average inhibition %, planktonic cells turbidity: 9.2 ± 8.6%
  Average inhibition %, planktonic cells viability: 1 ± 1.7%
S. aureus ATCC 25923 [2]; 50 µM
  Average inhibition %, biofilms biomass: 39.5 ± 9%
  Average inhibition %, biofilms viability: 25.2 ± 5.5%
  Average inhibition %, planktonic cells turbidity: 28.1 ± 16.3%
  Average inhibition %, planktonic cells viability: 22.5 ± 18.5%
S. aureus ATCC 25923 [2]; 100 µM
  Average inhibition %, biofilms biomass: 51.3 ± 5.8%
  Average inhibition %, biofilms viability: 23.1 ± 10.2%
  Average inhibition %, planktonic cells turbidity: 45.7 ± 12.8%
  Average inhibition %, planktonic cells viability: 59.7 ± 16.4%
S. aureus ATCC 25923 [2]; 200 µM
  Average inhibition %, biofilms biomass: 47.7 ± 12.7%
  Average inhibition %, biofilms viability: 17.1 ± 16.5%
  Average inhibition %, planktonic cells turbidity: 53.9 ± 18.7%
  Average inhibition %, planktonic cells viability: 70.7 ± 12.5%
